Assay results taken from patent US20150289513A1, “USE OF A COMPOUND COMPRISING A POLYFLUOROBENZYL MOIETY AGAINST INSECTICIDE-RESISTANT PESTS” (priority 2012, published 2015).

Experiments:
[1] = test system: Anopheles gambiae (target-site-resistant and metabolic-resistant strain: RSPH); experiment: Glazed tile contact test, knock-down; assay type: in vivo
[2] = test system: Cimex Lectularius, strain Cincinnati (CIN-1); experiment: Spray test on bed bugs on glazed tile; assay type: in vivo; settings: for Amount of animals that are knocked down/killed: 10 bed bugs
Protocol: To produce a suitable preparation Transfluthrin was dissolved in acetone in various concentrations (0.1 mg Transfluthrin/ml; 0.01 mg Transfluthrin/ml and 0.001 mg Transfluthrin/ml). Efficacy tests were done by placing 10 bed bug test animals (Cimex Lectularius, strain Cincinnati (CIN-1)) onto a glazed tile. The prepared solutions in various concentractions were sprayed with a glass nozzle onto the bed bugs on the glazed tile. After spraying the bed bugs were transferred to plastic cups. 5 minutes, 10 minutes, 15 minutes, 20 minutes, 0.5 hour, 1 hour, 2 hour, 4 hour and 24 hours after the treatment, the knock-down proportion of the test animals was determined.

CC=CC1C(C(=O)OCc2c(F)c(F)c(COC)c(F)c2F)C1(C)C (centres unmarked) [Metofluthrin, 2,3,5,6-Tetrafluoro-4-(methoxymethyl)benzyl 2,2-dimethyl-3-(prop-1-en-1-yl)cyclopropanecarboxylate]
20%: Effect % ([1]; 0.064 g/ha, 24 h after contact) | Effect % ([1]; 0.32 g/ha, 24 h after contact)
0%: Effect % ([1]; 0.064 g/ha, 0.25 h after contact) | Effect % ([1]; 0.064 g/ha, 0.5 h after contact) | Effect % ([1]; 0.064 g/ha, 1 h after contact) | Effect % ([1]; 0.064 g/ha, 2 h after contact) | Effect % ([1]; 0.064 g/ha, 3 h after contact) | Effect % ([1]; 0.32 g/ha, 0.25 h after contact) | Effect % ([1]; 0.32 g/ha, 3 h after contact)
100%: Effect % ([1]; 1.6 g/ha, 0.25 h after contact) | Effect % ([1]; 1.6 g/ha, 0.5 h after contact) | Effect % ([1]; 1.6 g/ha, 1 h after contact) | Effect % ([1]; 1.6 g/ha, 2 h after contact) | Effect % ([1]; 1.6 g/ha, 3 h after contact) | Effect % ([1]; 1.6 g/ha, 4 h after contact) | Effect % ([1]; 1.6 g/ha, 24 h after contact) | Effect % ([1]; 8 g/ha, 0.25 h after contact) | Effect % ([1]; 8 g/ha, 0.5 h after contact) | Effect % ([1]; 8 g/ha, 1 h after contact) | Effect % ([1]; 8 g/ha, 2 h after contact) | Effect % ([1]; 8 g/ha, 3 h after contact) | Effect % ([1]; 8 g/ha, 4 h after contact) | Effect % ([1]; 8 g/ha, 24 h after contact) | Effect % ([1]; 40 g/ha, 0.25 h after contact) | Effect % ([1]; 40 g/ha, 0.5 h after contact) | Effect % ([1]; 40 g/ha, 1 h after contact) | Effect % ([1]; 40 g/ha, 2 h after contact) | Effect % ([1]; 40 g/ha, 3 h after contact) | Effect % ([1]; 40 g/ha, 4 h after contact) | Effect % ([1]; 40 g/ha, 24 h after contact) | Effect % ([1]; 200 g/ha, 0.25 h after contact) | Effect % ([1]; 200 g/ha, 0.5 h after contact) | Effect % ([1]; 200 g/ha, 1 h after contact) | Effect % ([1]; 200 g/ha, 2 h after contact) | Effect % ([1]; 200 g/ha, 3 h after contact) | Effect % ([1]; 200 g/ha, 4 h after contact) | Effect % ([1]; 200 g/ha, 24 h after contact) | Effect % ([1]; 1000 g/ha, 0.25 h after contact) | Effect % ([1]; 1000 g/ha, 0.5 h after contact) | Effect % ([1]; 1000 g/ha, 1 h after contact) | Effect % ([1]; 1000 g/ha, 2 h after contact) | Effect % ([1]; 1000 g/ha, 3 h after contact) | Effect % ([1]; 1000 g/ha, 4 h after contact) | Effect % ([1]; 1000 g/ha, 24 h after contact)
10%: Effect % ([1]; 0.064 g/ha, 4 h after contact) | Effect % ([1]; 0.32 g/ha, 0.5 h after contact) | Effect % ([1]; 0.32 g/ha, 1 h after contact) | Effect % ([1]; 0.32 g/ha, 2 h after contact) | Effect % ([1]; 0.32 g/ha, 4 h after contact)

CC1(C)[C@H](C=C(Cl)Cl)[C@H]1C(=O)OCc1c(F)c(F)cc(F)c1F [Transfluthrin, (1R,3S)-3-(2,2-Dichlorovinyl)-2,2-dimethyl-1-cyclopropanecarboxylic acid (2,3,5,6-tetrafluorophenyl)methyl ester]
3: Amount of animals that are knocked down/killed ([2]; 0.001 mg Transfluthrin/ml Aceton, 1440 min after spray)
1: Amount of animals that are knocked down/killed ([2]; 0.001 mg Transfluthrin/ml Aceton, 60 min after spray) | Amount of animals that are knocked down/killed ([2]; 0.001 mg Transfluthrin/ml Aceton, 120 min after spray)
6: Amount of animals that are knocked down/killed ([2]; 0.01 mg Transfluthrin/ml Aceton, 10 min after spray)
efficient: Efficiency against insecticide-resistant bed bug strain ([2]; in vivo)
9: Amount of animals that are knocked down/killed ([2]; 0.01 mg Transfluthrin/ml Aceton, 15 min after spray) | Amount of animals that are knocked down/killed ([2]; 0.1 mg Transfluthrin/ml Aceton, 10 min after spray) | Amount of animals that are knocked down/killed ([2]; 0.1 mg Transfluthrin/ml Aceton, 1440 min after spray)
10: Amount of animals that are knocked down/killed ([2]; 0.01 mg Transfluthrin/ml Aceton, 20 min after spray) | Amount of animals that are knocked down/killed ([2]; 0.01 mg Transfluthrin/ml Aceton, 30 min after spray) | Amount of animals that are knocked down/killed ([2]; 0.01 mg Transfluthrin/ml Aceton, 60 min after spray) | Amount of animals that are knocked down/killed ([2]; 0.01 mg Transfluthrin/ml Aceton, 120 min after spray) | Amount of animals that are knocked down/killed ([2]; 0.01 mg Transfluthrin/ml Aceton, 240 min after spray) | Amount of animals that are knocked down/killed ([2]; 0.1 mg Transfluthrin/ml Aceton, 15 min after spray) | Amount of animals that are knocked down/killed ([2]; 0.1 mg Transfluthrin/ml Aceton, 20 min after spray) | Amount of animals that are knocked down/killed ([2]; 0.1 mg Transfluthrin/ml Aceton, 30 min after spray) | Amount of animals that are knocked down/killed ([2]; 0.1 mg Transfluthrin/ml Aceton, 60 min after spray) | Amount of animals that are knocked down/killed ([2]; 0.1 mg Transfluthrin/ml Aceton, 120 min after spray) | Amount of animals that are knocked down/killed ([2]; 0.1 mg Transfluthrin/ml Aceton, 240 min after spray)
0: Amount of animals that are knocked down/killed ([2]; 0.001 mg Transfluthrin/ml Aceton, 10 min after spray) | Amount of animals that are knocked down/killed ([2]; 0.001 mg Transfluthrin/ml Aceton, 15 min after spray) | Amount of animals that are knocked down/killed ([2]; 0.001 mg Transfluthrin/ml Aceton, 20 min after spray) | Amount of animals that are knocked down/killed ([2]; 0.001 mg Transfluthrin/ml Aceton, 30 min after spray) | Amount of animals that are knocked down/killed ([2]; 0.001 mg Transfluthrin/ml Aceton, 240 min after spray)
7: Amount of animals that are knocked down/killed ([2]; 0.01 mg Transfluthrin/ml Aceton, 1440 min after spray)
